Assay [1] deals with MOLM-14 F691L (endogenous FLT3 ITD and transfected FLT3 F691L). Description: MOLM-14 F691L cell proliferation assay (CellTiter-Glo). The conditions noted are these: Homo sapiens, MOLM-14, 72 h; 3 d growth, GMean. It is filed as cell-based. The procedure, abridged:
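MOLM-14 derivatives carrying D835Y or F691L, selected under escalating AC220, were seeded at 1×10^4 cells/well and exposed to an 8-point 1:3 compound series (1 to 0.00046 μM, 0.2% DMSO final) for three days at 37° C., 5% CO2. CellTiter-Glo luminescence (ATP content) versus concentration gave IC50.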
A general note: In ATP-based viability assays light output follows the ATP content of the culture.

The target in another assay is T1, BA/F3-FLT3-ITD + D835Y (Homo sapiens, UniProt P36888, D835Y, cells depend on it, form not given).
T1 sequence (P36888 with tags, fused parts or gaps INS600HVDFREYEYD/D835Y): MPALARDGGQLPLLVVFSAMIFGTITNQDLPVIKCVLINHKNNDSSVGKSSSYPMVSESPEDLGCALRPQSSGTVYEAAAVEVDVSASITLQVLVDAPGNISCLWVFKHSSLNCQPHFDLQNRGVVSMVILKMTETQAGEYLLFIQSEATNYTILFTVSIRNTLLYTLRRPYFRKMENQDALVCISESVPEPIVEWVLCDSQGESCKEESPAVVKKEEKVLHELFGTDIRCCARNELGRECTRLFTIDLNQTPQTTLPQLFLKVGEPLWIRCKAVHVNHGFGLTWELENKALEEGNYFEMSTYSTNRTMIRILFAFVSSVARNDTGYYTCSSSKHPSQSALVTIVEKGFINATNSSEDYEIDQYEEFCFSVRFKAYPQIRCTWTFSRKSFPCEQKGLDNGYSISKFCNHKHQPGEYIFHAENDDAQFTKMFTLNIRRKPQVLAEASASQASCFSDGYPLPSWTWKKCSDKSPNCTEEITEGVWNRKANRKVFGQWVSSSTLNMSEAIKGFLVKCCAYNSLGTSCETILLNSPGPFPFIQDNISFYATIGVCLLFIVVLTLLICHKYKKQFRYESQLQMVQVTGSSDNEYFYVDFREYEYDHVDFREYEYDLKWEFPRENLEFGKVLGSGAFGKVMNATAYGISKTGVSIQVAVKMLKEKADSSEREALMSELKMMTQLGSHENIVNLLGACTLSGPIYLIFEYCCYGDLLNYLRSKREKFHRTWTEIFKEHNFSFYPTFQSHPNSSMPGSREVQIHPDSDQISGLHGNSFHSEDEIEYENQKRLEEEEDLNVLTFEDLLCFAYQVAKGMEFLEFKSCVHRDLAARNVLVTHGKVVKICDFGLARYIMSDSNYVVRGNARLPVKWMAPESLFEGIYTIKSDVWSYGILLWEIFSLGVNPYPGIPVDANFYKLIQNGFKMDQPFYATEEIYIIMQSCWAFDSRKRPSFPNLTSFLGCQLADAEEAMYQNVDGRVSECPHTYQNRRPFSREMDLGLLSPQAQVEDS
The assay can be described thus: Engineered BA/F3 cell growth assay, FLT3 ITD/D835Y. The settings on record: 3 d growth. It is filed as cell-based, murine. In a few lines: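 IC50 derived from CellTiter-Glo ATP luminescence after 3 days at 37 °C, 5% CO2, over eight 1:3 dilutions from 1 μM (0.2% DMSO final). Cells: IL-3-independent murine Ba/F3 expressing full-length FLT3 ITD/D835Y, 1×10^4 per well.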

In assay [1], `O=C(Cc1ccc(-c2cnc(Nc3cnn(C(F)F)c3)nc2)cc1)Nc1cc(C(F)(F)F)ccn1` [Compound P-0023, 2-[4-[2-[[1-(difluoromethyl)pyrazol-4-yl]amino]pyrimidin-5-yl]phenyl]-N-[4-(trifluoromethyl)-2-pyridyl]acetamide] yielded an IC50 of 0.0001 to 10 µM. For the same compound, the GI50 at BA/F3-FLT3-ITD + D835Y lay within 0.0001 to 10 µM.
Turning to `Cn1cc(Nc2ncc(-c3cc(F)c(CC(=O)Nc4cncc(C(F)(F)F)c4)cc3F)cn2)cn1` [Compound P-0207, 2-[2,5-difluoro-4-[2-[(1-methylpyrazol-4-yl)amino]pyrimidin-5-yl]phenyl]-N-[5-(trifluoromethyl)-3-pyridyl]acetamide], the IC50 in assay [1] was 0.0001 to 10 µM. Besides, the GI50 on BA/F3-FLT3-ITD + D835Y was 0.0001 to 10 µM.
Turning to `COc1ncc(NC(=O)Cc2ccc(-c3cnc4[nH]c(-c5ccnc(C#N)c5)cc4c3)c(F)c2)cc1C(F)(F)F` [Compound P-0016, 2-[4-[2-(2-cyano-4-pyridyl)-1H-pyrrolo[2,3-b]pyridin-5-yl]-3-fluoro-phenyl]-N-[6-methoxy-5-(trifluoromethyl)-3-pyridyl]acetamide], the IC50 in assay [1] is 0.0001 to 10 µM. The GI50 on BA/F3-FLT3-ITD + D835Y fell in the range of 0.0001 to 10 µM.
Consider `COCCn1cc(Nc2ncc(-c3ccc(CC(=O)Nc4cncc(C(F)(F)F)c4)c(F)c3)cn2)cn1` [Compound P-0267, 2-[2-fluoro-4-[2-[[1-(2-methoxyethyl)pyrazol-4-yl]amino]pyrimidin-5-yl]phenyl]-N-[5-(trifluoromethyl)-3-pyridyl]acetamide], for which the 50% inhibitory concentration (IC50) in assay [1] lay within 0.0001 to 10 µM. At BA/F3-FLT3-ITD + D835Y, the GI50 is 0.0001 to 10 µM.
`COc1ncc(NC(=O)Cc2ccc(-c3cnc4[nH]c(C#Cc5cncn5C)cc4c3)cc2)cc1C(F)(F)F` [Compound P-0227, N-[6-methoxy-5-(trifluoromethyl)-3-pyridyl]-2-[4-[2-[2-(3-methylimidazol-4-yl)ethynyl]-1H-pyrrolo[2,3-b]pyridin-5-yl]phenyl]acetamide] yielded an IC50 in assay [1] of 0.0001 to 10 µM. For the same compound, at BA/F3-FLT3-ITD + D835Y, the GI50 lay in the range of 0.0001 to 10 µM.
As for `Cc1ncc(NC(=O)Cc2ccc(-c3cnc(Nc4cnn(C5CC5)c4)nc3)cc2)cc1C(F)(F)F` [Compound P-0232, 2-[4-[2-[(1-cyclopropylpyrazol-4-yl)amino]pyrimidin-5-yl]phenyl]-N-[6-methyl-5-(trifluoromethyl)-3-pyridyl]acetamide], the IC50 in assay [1] lay within 0.0001 to 10 µM. In addition, the concentration for 50% growth inhibition (GI50) at BA/F3-FLT3-ITD + D835Y lay in the range of 0.0001 to 10 µM.
`CCn1cc(Nc2ncc(-c3ccc(CC(=O)Nc4cc(C(F)(F)F)ccn4)c(F)c3)cn2)cn1` [Compound P-0255, 2-[4-[2-[(1-ethylpyrazol-4-yl)amino]pyrimidin-5-yl]-2-fluoro-phenyl]-N-[4-(trifluoromethyl)-2-pyridyl]acetamide]: the IC50 in assay [1] lay within 0.0001 to 10 µM. Further, at BA/F3-FLT3-ITD + D835Y, the GI50 lay in the range of 0.0001 to 10 µM.
Take `COc1ncc(NC(=O)Cc2cc(F)c(-c3cnc(Nc4cnn(C)c4)nc3)cc2F)cc1C(F)(F)F` [Compound P-0208, 2-[2,5-difluoro-4-[2-[(1-methylpyrazol-4-yl)amino]pyrimidin-5-yl]phenyl]-N-[6-methoxy-5-(trifluoromethyl)-3-pyridyl]acetamide]: the IC50 in assay [1] is 0.0001 to 10 µM. The GI50 on BA/F3-FLT3-ITD + D835Y is 0.0001 to 10 µM.
With `Cc1ncc(NC(=O)Cc2ccc(-c3cnc(Nc4cnn(C(F)F)c4)nc3)cc2)cc1C(F)(F)F` [Compound P-0210, 2-[4-[2-[[1-(difluoromethyl)pyrazol-4-yl]amino]pyrimidin-5-yl]phenyl]-N-[6-methyl-5-(trifluoromethyl)-3-pyridyl]acetamide], the IC50 in assay [1] was in the range of 0.0001 to 10 µM. The GI50 on BA/F3-FLT3-ITD + D835Y is 0.0001 to 10 µM.
As for `CCn1cc(Nc2ncc(-c3ccc(CC(=O)Nc4ccc(C(F)(F)F)nc4)c(F)c3)cn2)cn1` [Compound P-0257, 2-[4-[2-[(1-ethylpyrazol-4-yl)amino]pyrimidin-5-yl]-2-fluoro-phenyl]-N-[6-(trifluoromethyl)-3-pyridyl]acetamide], the IC50 in assay [1] was in the range of 0.0001 to 10 µM. For the same compound, the GI50 on BA/F3-FLT3-ITD + D835Y lay within 0.0001 to 10 µM.
As to `CCOc1n[nH]c2ncc(-c3ccc(CC(=O)Nc4cnc(C)c(C(F)(F)F)c4)cc3)cc12` [Compound P-0217, 2-[4-(3-ethoxy-1H-pyrazolo[3,4-b]pyridin-5-yl)phenyl]-N-[6-methyl-5-(trifluoromethyl)-3-pyridyl]acetamide], the half-maximal inhibitory concentration (IC50) in assay [1] lay within 0.0001 to 10 µM. Also, on BA/F3-FLT3-ITD + D835Y, the GI50 lay in the range of 0.0001 to 10 µM.
`CCn1cc(Nc2ncc(-c3cc(F)c(CC(=O)Nc4cnc(C)c(C(F)(F)F)c4)cc3F)cn2)cn1` [Compound P-0249, 2-[4-[2-[(1-ethylpyrazol-4-yl)amino]pyrimidin-5-yl]-2,5-difluoro-phenyl]-N-[6-methyl-5-(trifluoromethyl)-3-pyridyl]acetamide] had an IC50 in assay [1] of 0.0001 to 10 µM. Moreover, the GI50 on BA/F3-FLT3-ITD + D835Y lay in the range of 0.0001 to 10 µM.
As to `CCn1cc(Nc2ncc(-c3ccc(CC(=O)Nc4cnc(OC)c(C(F)(F)F)c4)c(F)c3)cn2)cn1` [Compound P-0259, 2-[4-[2-[(1-ethylpyrazol-4-yl)amino]pyrimidin-5-yl]-2-fluoro-phenyl]-N-[6-methoxy-5-(trifluoromethyl)-3-pyridyl]acetamide], the IC50 in assay [1] was 0.0001 to 10 µM. Moreover, at BA/F3-FLT3-ITD + D835Y, the GI50 lay in the range of 0.0001 to 10 µM.
In assay [1], `COCCn1cc(Nc2ncc(-c3ccc(CC(=O)Nc4ccc(C(F)(F)F)cn4)cc3)cn2)cn1` [Compound P-0274, 2-[4-[2-[[1-(2-methoxyethyl)pyrazol-4-yl]amino]pyrimidin-5-yl]phenyl]-N-[5-(trifluoromethyl)-2-pyridyl]acetamide] returned an IC50 of 0.0001 to 10 µM. Further, the GI50 on BA/F3-FLT3-ITD + D835Y is 0.0001 to 10 µM.
Consider `COc1ncc(NC(=O)Cc2ccc(-c3cnc4[nH]nc(C5CC5)c4c3)cc2F)cc1C(F)(F)F` [Compound P-0262, 2-[4-(3-cyclopropyl-1H-pyrazolo[3,4-b]pyridin-5-yl)-2-fluoro-phenyl]-N-[6-methoxy-5-(trifluoromethyl)-3-pyridyl]acetamide], for which the half-inhibitory concentration (IC50) in assay [1] lay within 0.0001 to 10 µM. At BA/F3-FLT3-ITD + D835Y, the GI50 is 0.0001 to 10 µM.
Take `COCCn1cc(Nc2ncc(-c3ccc(CC(=O)Nc4cnc(Cl)c(C(F)(F)F)c4)c(F)c3)cn2)cn1` [Compound P-0266, N-[6-chloro-5-(trifluoromethyl)-3-pyridyl]-2-[2-fluoro-4-[2-[[1-(2-methoxyethyl)pyrazol-4-yl]amino]pyrimidin-5-yl]phenyl]acetamide]: the IC50 in assay [1] lay within 0.0001 to 10 µM. Moreover, at BA/F3-FLT3-ITD + D835Y, the GI50 is 0.0001 to 10 µM.
As to `O=C(Cc1ccc(-c2cnc(Nc3cnn(C4CC4)c3)nc2)cc1)Nc1ccc(C(F)(F)F)cn1` [Compound P-0236, 2-[4-[2-[(1-cyclopropylpyrazol-4-yl)amino]pyrimidin-5-yl]phenyl]-N-[5-(trifluoromethyl)-2-pyridyl]acetamide], the IC50 in assay [1] is 0.0001 to 10 µM. In addition, on BA/F3-FLT3-ITD + D835Y, the concentration for 50% growth inhibition (GI50) was 0.0001 to 10 µM.
`Cc1ncc(NC(=O)Cc2ccc(-c3cnc(Nc4cnn(C)c4C)nc3)cc2)cc1C(F)(F)F` [Compound P-0229, 2-[4-[2-[(1,5-dimethylpyrazol-4-yl)amino]pyrimidin-5-yl]phenyl]-N-[6-methyl-5-(trifluoromethyl)-3-pyridyl]acetamide] displayed an IC50 in assay [1] of 0.0001 to 10 µM. Further, the 50% growth inhibitory concentration (GI50) at BA/F3-FLT3-ITD + D835Y fell in the range of 0.0001 to 10 µM.
`O=C(Cc1ccc(-c2cnc(Nc3cnn(C4CC4)c3)nc2)cc1)Nc1cncc(C(F)(F)F)c1` [Compound P-0231, 2-[4-[2-[(1-cyclopropylpyrazol-4-yl)amino]pyrimidin-5-yl]phenyl]-N-[5-(trifluoromethyl)-3-pyridyl]acetamide] registered an IC50 in assay [1] of 0.0001 to 10 µM. The GI50 on BA/F3-FLT3-ITD + D835Y was in the range of 0.0001 to 10 µM.

One may read the IC50 as the point on the concentration scale where inhibition reaches its midpoint. A high value points to lower potency. For orientation: GI50 means the concentration at which growth is held to half of that of the control.

The values are drawn from patent US10160747B2, “Compounds and methods for kinase modulation, and indications therefor” (Plexxikon Inc., priority 2016, dated 2018).
